{"source": "paper PMC3637861", "about": "(Journal of muscle research and cell motility, 2013)", "biological_target": "Recombinant chicken cardiac troponin C (cTnC) (Gallus gallus, UniProt P09860)", "assay": "intrinsic tyrosine fluorescence quenching titration, hyperbolic plus linear fit", "assay_type": "binding", "note": "pKd: −log10 of the molar value.", "data": [{"smiles": "O=C(O[C@@H]1Cc2c(O)cc(O)cc2O[C@@H]1c1cc(O)c(O)c(O)c1)c1cc(O)c(O)c(O)c1", "note": "[EGCg]", "values": [{"measurement": "pKd", "value": 4.19}]}]}
